The values that follow come from ChEMBL document CHEMBL1131377, “Novel 5-(3-aryl-2-propynyl)-5-(arylsulfonyl)thiazolidine-2,4-diones as antihyperglycemic agents” (1998).

Format in all cases: functional
The test system of assay [1] is Mus musculus. Description: Percent decrease in glucose of db/db mouse was measured at 100 mg/kg/day dosage.
The subject of assay [2] is Mus musculus. Description: Percent decrease in glucose of db/db mouse was measured at 20 mg/kg/day dosage.
The subject of assay [3] is Mus musculus. Put plainly: % decrease in insulin of 4 day ob/ob mouse was measured at 50 mg/kg/day dosage.
Assay [4] concerns Mus musculus. Put plainly: % decrease in glucose of 4 day ob/ob mouse was measured at 50 mg/kg/day dosage.
In assay [5] the test system is Mus musculus. Description: % decrease in glucose of 4 day ob/ob mouse was measured at 100 mg/kg/day dosage.
Assay [6] has as its system Mus musculus. Put plainly: % decrease in insulin of 4 day ob/ob mouse was measured at 100 mg/kg/day dosage.

The compound `Cc1ccc(S(=O)(=O)C2(CC#Cc3ccccc3Cl)SC(=O)NC2=O)cc1` (configuration not stated) came in with a Decrease in the assay with Mus musculus [1] of 30%. On to `O=C1NC(=O)C(CC#Cc2ccc(C(F)(F)F)cc2)(S(=O)(=O)c2ccc(F)cc2)S1` (configuration not stated), for which the Decrease in the assay on Mus musculus [1] was 52%; in the assay on Mus musculus [2] it was less than 15%.

For `O=C1NC(=O)C(CC#Cc2ccc(F)cc2)(S(=O)(=O)c2ccc(Cl)cc2)S1` (configuration not stated), the Decrease is 54% with Mus musculus [1] and less than 15% in the assay with Mus musculus [2]. As for `O=C1NC(=O)C(CC#Cc2ccc(Br)cc2)(S(=O)(=O)c2ccccc2)S1` (configuration not stated), the Decrease in the assay with Mus musculus [1] was 53%; with Mus musculus [2] it was less than 15%.

For the compound `Cc1cccc(S(=O)(=O)C2(CC#Cc3ccccc3)SC(=O)NC2=O)c1` (configuration not stated), the values for the Decrease in the assay with Mus musculus [1] and in the assay with Mus musculus [2] were 48% and less than 15%, respectively. As to `Cc1ccc(C#CCC2(S(=O)(=O)c3ccc(C)cc3)SC(=O)NC2=O)cc1` (configuration not stated), in the assay on Mus musculus [1], the Decrease amounted to 28%. Still for that read-out and setting: then `Cc1ccc(SC2(CC#Cc3ccc(Cl)cc3)SC(=O)NC2=O)cc1` (configuration not stated), with 27%. As for `O=C1NC(=O)C(CC#Cc2ccc(F)cc2)(S(=O)(=O)c2ccc(F)cc2)S1` (configuration not stated), the Decrease with Mus musculus [1] was 57%; in the assay on Mus musculus [2], 25%. Turning to `O=C1NC(=O)C(CC#Cc2ccc(C(F)(F)F)cc2)(S(=O)(=O)c2ccccc2)S1` (configuration not stated), the Decrease is listed as 59% with Mus musculus [1] and less than 15% in the assay with Mus musculus [2].

Turning to `O=C1NC(=O)C(CC#Cc2ccc(Cl)cc2)(S(=O)(=O)c2ccccn2)S1` (configuration not stated), the Decrease in the assay with Mus musculus [1] came to 55%; in the assay on Mus musculus [2] it was 38%. As to `O=C1NC(=O)C(CC#Cc2ccc(Br)cc2)(S(=O)(=O)c2ccc(F)cc2)S1` (configuration not stated), the Decrease was 70% in the assay with Mus musculus [1] and less than 15% in the assay with Mus musculus [2]. `O=C1NC(=O)C(CC#Cc2ccc(Cl)cc2)(Sc2ccccc2)S1` (configuration not stated) registered a Decrease in the assay with Mus musculus [1] of less than 15%.

In the assay with Mus musculus [1], `O=C1NC(=O)C(CC#Cc2ccc(C(F)(F)F)cc2)(S(=O)(=O)c2ccc(Cl)cc2)S1` (configuration not stated) showed a Decrease of 37%. `O=C1NC(=O)C(CC#Cc2cc(C(F)(F)F)cc(C(F)(F)F)c2)(S(=O)(=O)c2ccccn2)S1` (configuration not stated) returned a Decrease in the assay on Mus musculus [2] of less than 15%. The compound `COc1ccc(C#CCC2(S(=O)(=O)c3ccccc3)SC(=O)NC2=O)cc1` (configuration not stated) displayed a Decrease in the assay on Mus musculus [1] of 25%. Still for that read-out and setting: then `O=C1NC(=O)C(CC#Cc2cccc(Cl)c2)(S(=O)(=O)c2ccccc2)S1` (configuration not stated), with less than 15%. For the compound `Cc1ccc(S(=O)(=O)C2(CC#Cc3ccc(F)cc3)SC(=O)NC2=O)cc1` (configuration not stated), the Decrease in the assay with Mus musculus [1] was 65%; in the assay with Mus musculus [3], 30%; in the assay on Mus musculus [4], 30%; in the assay with Mus musculus [2] it was less than 15%. The compound `O=C1NC(=O)C(CC#Cc2ccccc2)(S(=O)(=O)c2ccccc2)S1` (configuration not stated) yielded a Decrease in the assay with Mus musculus [1] of less than 15%.

For `O=C1NC(=O)C(CC#Cc2ccccc2)(S(=O)(=O)c2ccc(Cl)cc2)S1` (configuration not stated), in the assay on Mus musculus [1], the Decrease came to 36%. For the compound `O=C1NC(=O)C(CC#Cc2ccc(F)c(F)c2)(S(=O)(=O)c2ccc(F)cc2)S1` (configuration not stated), the Decrease in the assay on Mus musculus [1] was determined as 33%. As to `Cc1ccc(S(=O)(=O)C2(CC#Cc3ccc(C(F)(F)F)cc3)SC(=O)NC2=O)cc1` (configuration not stated), the Decrease was 36% in the assay with Mus musculus [1] and less than 15% in the assay on Mus musculus [2]. Take `O=C1NC(=O)C(CC#Cc2ccc(Cl)cc2)(S(=O)(=O)c2ccc(Br)cc2)S1` (configuration not stated): the Decrease is given as 69% in the assay on Mus musculus [1], 69% with Mus musculus [3], 36% in the assay with Mus musculus [4] and less than 15% in the assay with Mus musculus [2]. In turn, `O=C1NC(=O)C(CC#Cc2ccccc2)(S(=O)(=O)c2ccc(F)cc2)S1` (configuration not stated) returned a Decrease in the assay with Mus musculus [1] of 26%.

For `O=C1NC(=O)C(CC#Cc2ccc(Cl)cc2)(S(=O)(=O)c2ccc(F)cc2)S1` (configuration not stated), the figures for the Decrease in the assay on Mus musculus [1] and with Mus musculus [2] were 79% and 31%, respectively. As for `O=C1NC(=O)C(CC#Cc2ccc(Cl)cc2)(S(=O)(=O)c2ccc3ccccc3n2)S1` (configuration not stated), the Decrease in the assay with Mus musculus [2] is on record as less than 15%. Compound `COc1ccc(S(=O)(=O)C2(CC#Cc3ccccc3)SC(=O)NC2=O)cc1` (configuration not stated) had a Decrease in the assay with Mus musculus [1] of 21%.

For `Cc1cccc(S(=O)(=O)C2(CC#Cc3ccc(Cl)cc3)SC(=O)NC2=O)c1` (configuration not stated), the Decrease in the assay with Mus musculus [1] was 33%. For the compound `Cc1ccc(S(=O)(=O)C2(CC#Cc3ccccc3)SC(=O)NC2=O)cc1` (configuration not stated), the Decrease stood at 43% in the assay on Mus musculus [1] and 23% with Mus musculus [2].

Consider `O=C1NC(=O)C(S(=O)(=O)c2ccc3ccccc3c2)S1` (configuration not stated), for which, in the assay on Mus musculus [1], the Decrease amounted to 21%.

`Cc1ccc(S(=O)(=O)C2(CC#Cc3cc(C(F)(F)F)cc(C(F)(F)F)c3)SC(=O)NC2=O)cc1` (configuration not stated): the Decrease in the assay on Mus musculus [1] was 22%. `O=C1NC(=O)C(CC#Cc2ccc(Cl)cc2)(S(=O)(=O)c2ccc(Cl)cc2)S1` (configuration not stated): the Decrease is given as 70% in the assay on Mus musculus [1], 56% in the assay on Mus musculus [3], 47% with Mus musculus [4] and 18% with Mus musculus [2].

For `Cc1cccc(S(=O)(=O)C2(CC#Cc3ccc(Cl)cc3)SC(=O)NC2=O)n1` (configuration not stated), the Decrease in the assay with Mus musculus [1] and in the assay on Mus musculus [2] was less than 15% in each case. Regarding `O=C1NC(=O)C(CC#Cc2ccc(F)cc2)(S(=O)(=O)c2ccccn2)S1` (configuration not stated), the Decrease with Mus musculus [1] came out at 67%; in the assay with Mus musculus [3], 54%; in the assay with Mus musculus [4], 44%; in the assay with Mus musculus [2] it was 36%.

In the assay on Mus musculus [1], `O=C1NC(=O)C(CC#Cc2ccccc2Cl)(S(=O)(=O)c2ccccc2)S1` (configuration not stated) yielded a Decrease of less than 15%. `O=C1NC(=O)C(CC#Cc2ccccc2)(S(=O)(=O)c2ccc3ccccc3c2)S1` (configuration not stated) had a Decrease in the assay with Mus musculus [1] of 24%. Still for that read-out and setting: under `O=C1NC(=O)C(CC#Cc2ccc(Cl)cc2)(Sc2ccc3ccccc3n2)S1` (configuration not stated) stands less than 15%. Consider `O=C1NC(=O)C(CC#Cc2cc(C(F)(F)F)cc(C(F)(F)F)c2)(S(=O)(=O)c2ccccc2)S1` (configuration not stated), for which the values for the Decrease in the assay with Mus musculus [1] and with Mus musculus [2] were 54% and 21%, respectively. Turning to `O=C1NC(=O)C(CC#Cc2ccc(OC(F)(F)F)cc2)(S(=O)(=O)c2ccc(F)cc2)S1` (configuration not stated), the Decrease in the assay with Mus musculus [1] is 56%; in the assay with Mus musculus [2], less than 15%. As to `CSc1ccc(C#CCC2(S(=O)(=O)c3ccc(F)cc3)SC(=O)NC2=O)cc1` (configuration not stated), the Decrease in the assay with Mus musculus [1] was less than 15%. As for `O=C1NC(=O)C(CC#Cc2ccc(F)cc2)(S(=O)(=O)c2ccccc2)S1` (configuration not stated), the values for the Decrease with Mus musculus [1] and in the assay with Mus musculus [2] were 58% and less than 15%, respectively.

In the assay on Mus musculus [1], `O=C1NC(=O)C(CC#Cc2ccc(Cl)cc2)(S(=O)(=O)c2ccc3ccccc3c2)S1` (configuration not stated) gave a Decrease of 20%.

For the compound `O=C1NC(=O)C(CC#Cc2ccc(F)cc2)(S(=O)(=O)c2ccc(Br)cc2)S1` (configuration not stated), the Decrease with Mus musculus [1] is reported as 64%; in the assay on Mus musculus [2], less than 15%. For `COc1ccc(S(=O)(=O)C2(CC#Cc3ccc(Cl)cc3)SC(=O)NC2=O)cc1` (configuration not stated) the same measures were 45% and less than 15%. Compound `COc1ccc(C#CCC2(S(=O)(=O)c3ccc(C)cc3)SC(=O)NC2=O)cc1` (configuration not stated) displayed a Decrease with Mus musculus [1] of less than 15%.

As for `O=C1NC(=O)C(CC#Cc2ccc(Cl)cc2)(S(=O)(=O)c2ccccc2)S1` (configuration not stated), the Decrease in the assay with Mus musculus [1] amounted to 52%; in the assay with Mus musculus [2] it was 21%; in the assay with Mus musculus [5], 40%; in the assay on Mus musculus [6] it was 65%. In the assay on Mus musculus [1], `Cc1cccc(SC2(CC#Cc3ccc(Cl)cc3)SC(=O)NC2=O)n1` (configuration not stated) came in with a Decrease of less than 15%. Same read-out and setting: then `O=C1NC(=O)C(CC#Cc2ccc(Cl)cc2)(Sc2ccc(Cl)cc2)S1` (configuration not stated), with 24%; and `Cc1ccc(S(=O)(=O)C2(CC#Cc3ccc(Cl)cc3)SC(=O)NC2=O)cc1` (configuration not stated), with 35%.

For the compound `O=C1NC(=O)C(CC#Cc2ccc(Br)cc2)(S(=O)(=O)c2ccc(Cl)cc2)S1` (configuration not stated), the Decrease with Mus musculus [1] is 68%; with Mus musculus [2] it was less than 15%. For `Cc1ccc(S(=O)(=O)C2(CC#Cc3ccc(Br)cc3)SC(=O)NC2=O)cc1` (configuration not stated) the same measures were 51% and 23%. As to `Cc1ccc(S(=O)(=O)C2(CC#Cc3cccc(Cl)c3)SC(=O)NC2=O)cc1` (configuration not stated), the Decrease in the assay with Mus musculus [1] is reported as 30%.

As for `Cc1ccc(C#CCC2(S(=O)(=O)c3ccccc3)SC(=O)NC2=O)cc1` (configuration not stated), the Decrease in the assay on Mus musculus [1] is listed as less than 15%. Turning to `O=C1NC(=O)C(CC#Cc2ccccc2)(S(=O)(=O)c2ccc(Br)cc2)S1` (configuration not stated), the Decrease with Mus musculus [1] is recorded as 43%; with Mus musculus [2], less than 15%. For the compound `O=C1NC(=O)C(CC#Cc2ccc(Cl)cc2)(Sc2ccccn2)S1` (configuration not stated), the Decrease in the assay with Mus musculus [1] is reported as less than 15%. Same read-out and setting: under `O=C1NC(=O)C(CC#Cc2ccc(Cl)cc2)(Sc2ccc(F)cc2)S1` (configuration not stated) stands less than 15%. In the case of `CC1(COc2ccc(CC3SC(=O)NC3=O)cc2)CCCCC1` (configuration not stated) [CIGLITAZONE], the Decrease in the assay with Mus musculus [1] is on record as 32%; with Mus musculus [2], less than 15%; in the assay with Mus musculus [5] it was 43%; in the assay with Mus musculus [6], 39%. Regarding `Cc1ccc(S(=O)(=O)C(CC#Cc2ccc(Cl)cc2)C(=O)O)cc1` (configuration not stated) [TIBEGLISENE], the Decrease with Mus musculus [1] is given as 30%; in the assay on Mus musculus [3], 54%; in the assay with Mus musculus [4], less than 15%.
